EP0529622A2, “Cloning and characterization of a cardiac adenylyl cyclase” (AMERICAN CYANAMID COMPANY, priority 1991, dated 1993)

Tests used:
cardiac adenylyl cyclase = target: T1, cardiac adenylyl cyclase (Canis lupus familiaris, UniProt P30803); test: Adenylyl cyclase activity assay (method of Salomon), crude membranes of CMT cells transfected with pcDNA113-72; assay type: biochemical, canine; details: for fold more stimulation than the control: transfected vs untransfected control, 100 µM forskolin
T1 construct: The expression vector containing the full length cDNA is designated pcDNA113-72; expressed in transfected cells; host or cells: monkey kidney CMT cells (COS derivative), transient transfection with pcDNA113-72, crude membrane preparation
T1 sequence (P30803 82-1265 limits assumed): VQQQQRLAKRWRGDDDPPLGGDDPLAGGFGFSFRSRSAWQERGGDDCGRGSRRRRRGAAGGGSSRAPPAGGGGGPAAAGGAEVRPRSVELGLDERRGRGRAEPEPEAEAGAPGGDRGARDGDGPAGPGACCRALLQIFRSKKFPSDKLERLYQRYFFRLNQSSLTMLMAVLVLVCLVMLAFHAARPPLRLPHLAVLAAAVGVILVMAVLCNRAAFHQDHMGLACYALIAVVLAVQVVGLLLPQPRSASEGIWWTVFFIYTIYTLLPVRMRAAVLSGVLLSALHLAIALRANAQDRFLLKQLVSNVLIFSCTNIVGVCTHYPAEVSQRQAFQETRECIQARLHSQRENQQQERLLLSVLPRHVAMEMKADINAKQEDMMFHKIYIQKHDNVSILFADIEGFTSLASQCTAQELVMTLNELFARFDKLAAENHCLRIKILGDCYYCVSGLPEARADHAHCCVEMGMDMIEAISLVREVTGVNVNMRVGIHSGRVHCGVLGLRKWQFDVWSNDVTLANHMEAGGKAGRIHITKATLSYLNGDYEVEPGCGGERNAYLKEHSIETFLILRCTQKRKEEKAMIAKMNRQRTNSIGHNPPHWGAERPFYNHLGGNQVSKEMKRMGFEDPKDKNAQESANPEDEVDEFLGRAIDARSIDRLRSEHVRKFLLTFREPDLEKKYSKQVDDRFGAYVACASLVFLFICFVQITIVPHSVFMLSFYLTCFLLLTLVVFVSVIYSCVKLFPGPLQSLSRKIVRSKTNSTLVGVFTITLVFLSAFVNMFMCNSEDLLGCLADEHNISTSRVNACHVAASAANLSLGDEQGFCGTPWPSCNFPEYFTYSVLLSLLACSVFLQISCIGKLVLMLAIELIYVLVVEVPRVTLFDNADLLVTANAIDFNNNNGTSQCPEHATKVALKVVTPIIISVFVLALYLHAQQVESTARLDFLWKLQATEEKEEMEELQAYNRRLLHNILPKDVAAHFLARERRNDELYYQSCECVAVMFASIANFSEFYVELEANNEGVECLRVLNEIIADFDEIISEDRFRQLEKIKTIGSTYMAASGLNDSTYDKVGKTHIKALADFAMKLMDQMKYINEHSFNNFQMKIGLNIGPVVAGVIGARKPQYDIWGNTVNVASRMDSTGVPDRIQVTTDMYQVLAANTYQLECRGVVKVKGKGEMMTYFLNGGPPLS
Source text: Biochemical characterization of the protein product encoded by this cDNA is obtained using a CMT cell-expression system. The CMT cell is a derivative of the COS cell in which expression of the T-antigen is under the control of a metallothionein promoter. Thus the accumulation of T-antigen in the cell is further enhanced by the addition of heavy metal ion in the medium. The adenylyl cyclase cDNA construct (113-72) is cloned into pcDNA 1, a CMV promoter-driven expression vector with an SV40 enhancer-origin of replication element. A crude membrane preparation is prepared from the transfected CMT cells and a variety of agents known to stimulate adenylyl cyclase are examined (Table I). There is a dose-dependent relationship between the amount of plasmid transfected and the resultant adenylyl cyclase activity, both basal and forskolin-stimulated (0-30 µg per transfection). When the plasmid without insert is transfected, the resultant adenylyl cyclase activity is slightly (∼15%) lower than that of mock-transfected cells. All activities are enhanced several-fold in the transfected cells, as compared to controls, with the forskolin-stimulated activity showing the greatest increase in activity (>6-fold increase over control).
In an example of such expression, twenty µg of the purified plasmid pcDNA 113-72 are transfected into the monkey kidney CMT cells using a modified method of Golub et al. (17). Briefly, the cells are grown to 80% confluence in Dulbecco's modification of Eagle's Medium, 10% fetal calf serum, 2 mM glutamine, 4.5 mg/ml glucose, 10 µg/ml streptomycin sulfate and 60 µg/ml penicillin K. After washing with PBS twice, 0.5 ml of trypsin solution is added. The cells are incubated for 10 minutes, and 20 µg of purified plasmid resuspended in 4 ml of DMEM containing 400 µg/ml DEAE dextran and 0.1 mM chloroquine is added. The cells are incubated for four hours followed by 10% DMSO shock for two minutes. After washing with PBS twice, the induction media, which contains 10% fetal calf serum (FCS), 2 mM glutamine, […], 2 mM penicillin and streptomycin, and 1 µM CdCl₂, 0.1 µM ZnCl₂ in DMEM, is added. The plate is incubated at 37 °C for 72 hours before harvesting.
The biochemical property of this cardiac adenylyl cyclase is examined in a transient expression system using CMT cells (a derivative of COS cells). CMT cells contain T-antigen driven by a methalothionein promoter in the genome. Thus by induction with heavy metal ion in the medium, CMT cells could produce more T-antigen than COS cells. A 4.3 kb fragment of the adenylyl cyclase cDNA (#113-72) containing the whole coding sequence is inserted into the pcDNA1 plasmid described above (Invitrogen).
The adenylyl cyclase activity of a cell transfected with the expression vector pcDNA1 carrying cardiac adenylyl cyclase cDNA is assayed as follows. The transfected CMT cells are washed twice with PBS and scraped in three ml of cold buffer containing 50 mM Tris (pH8.0), 1 mM EDTA, 10 µM PMSF (phenylmethylsulfonylfluoride), 100 U leupeptin, and 50 U egg white trypsin inhibitor (ETI) on ice. The membrane is homogenated in Polytron™ (setting 6 for 10 seconds) and is centrifuged at 800 x g for 10 minutes at 4 °C. The supernatant is further centrifuged at […] for 40 minutes at 4 °C. The resultant pellet is resuspended in 50 mM Tris (pH 8.0), 1 mM EDTA, 1 µM PMSF, 50 U leupeptin, and 50 U ETI, to a concentration of 5 µg/µl. This crude membrane solution is used for the adenylyl cyclase asssay. […]

type V adenylyl cyclase [1] = target: T2, type V adenylyl cyclase (Canis lupus familiaris, UniProt P30803); test: P-site inhibition of adenylyl cyclase activity by adenosine and its analogues, transfected CMT membranes; assay type: biochemical, canine; details: 0-100 µM; membranes preincubated with 5 mM Mn²⁺ and 100 µM forskolin for 10 minutes
T2 construct: expressed in transfected cells; host or cells: CMT cells, crude membrane preparation
T2 sequence (P30803 82-1265 limits assumed): as above
Procedure: Figure 7 depicts the effect of adenosine and its analogues on type V adenylyl cyclase activity. Membrane (transfected with pcDNA112-72 or control) are preincubated with 5 mM Mn²⁺ and 100 µM forskolin for 10 minutes prior to the assay. […] Each point in the average of triplicate determinations.
Another feature of adenylyl cyclase is its inhibition through an allosteric purine binding or P-site (6). […] This is more apparent when the enzyme is first activated by the addition of Mn²⁺, forskolin. The order of potency was as follows: 2'-deoxy-3'-AMD>3'-AMP>2'-deoxyadenosine>adenosine (Figure 7).

type V adenylyl cyclase [2] = target: T2, type V adenylyl cyclase; test: Calcium/calmodulin sensitivity of adenylyl cyclase activity, transfected CMT cell membranes; assay type: biochemical, canine; details: 30 µg crude CMT cell membrane; 0-1 mM calcium (CaCl₂); membranes washed with EGTA
Procedure: Figure 6 depicts the effect of calcium on type V adenylyl cyclase activity. Adenylyl cyclase activity (CMT cells transfected with pcDNA113-72 or cardiac sarcolemma) is measured in the presence of increasig concentrations of calcium (0-1 mM). Cardiac sarcolemma is prepared as described (26). Both membrane preparations are first washed with EGTA prior to assay (27). Similar results are obtained in three independent experiments. The efficiency of transfection is confirmed by at least a 4-fold increase in both basal and forskolin-stimulated adenylyl cyclase activities over control.
The calcium/calmodulin sensitivity of this protein is also assessed. […] Thirty µg of the crude CMT cell membrane preparation are incubated in the presence of increasing concentrations of CaCl₂. […] The adenylyl cyclase activity also is assessed in canine cardiac sarcolemma.

untransfected CMT cells = test: Adenylyl cyclase activity assay, membrane from untransfected CMT cells (control); assay type: biochemical, monkey; details: Control (untransfected CMT cell membrane), ± standard error
Procedure: The adenylyl cyclase activity of a cell transfected with the expression vector pcDNA1 carrying cardiac adenylyl cyclase cDNA is assayed as follows. The transfected CMT cells are washed twice with PBS and scraped in three ml of cold buffer containing 50 mM Tris (pH8.0), 1 mM EDTA, 10 µM PMSF (phenylmethylsulfonylfluoride), 100 U leupeptin, and 50 U egg white trypsin inhibitor (ETI) on ice. The membrane is homogenated in Polytron™ (setting 6 for 10 seconds) and is centrifuged at 800 x g for 10 minutes at 4 °C. The supernatant is further centrifuged at 100 x g for 40 minutes at 4 °C. The resultant pellet is resuspended in 50 mM Tris (pH 8.0), 1 mM EDTA, 1 µM PMSF, 50 U leupeptin, and 50 U ETI, to a concentration of 5 µg/µl. This crude membrane solution is used for the adenylyl cyclase asssay.
The adenylyl cyclase assay is performed by the method of Salomon (21). Briefly, the crude membranes from CMT cells are resuspended in a solution containing 1 mM creatine phosphate, 8 µg/ml creatine phophokinase, 4 mM HEPES (pH 8.0), 2 mM MgCl₂, 0.1 mM c-AMP, 0.1 mM ATP, and ³²P-ATP (0.2-5 µCi/assay tube). […] Cyclic-AMP is separated from ATP by passing through Dowex and alumina columns, and the radioactivity is counted by scintillation counter. The protein concentration of the membranes used are measured by Bradford's method (22), with bovine serum albumin as a standard. […]

[3] = 10 mM sodium fluoride, 100 µM GTPγS

With manganese as the compound, how does the “adenylyl cyclase activity stimulated over the control” value (cardiac adenylyl cyclase; in the presence of 5 mM manganese) read?
Its value is “more than 10 fold”.

`Nc1ncnc2c1ncn2[C@@H]1O[C@H](CO)[C@@H](O)[C@H]1O` [adenosine] was tested. Which “order of potency of inhibition of adenylyl cyclase activity” value (type V adenylyl cyclase [1]) did it give?
Its value is 2'-deoxy-3'-AMD>3'-AMP>2'-deoxyadenosine>adenosine.

For `Nc1ncnc2c1ncn2[C@H]1C[C@H](O)[C@@H](CO)O1` [2'-deoxyadenosine], which “order of potency of inhibition of adenylyl cyclase activity” value (type V adenylyl cyclase [1]) is on record?
The value was 2'-deoxy-3'-AMD>3'-AMP>2'-deoxyadenosine>adenosine.

Which “effect of calcium on adenylyl cyclase activity” value (type V adenylyl cyclase [2]) does the source give for CaCl₂ [calcium] here?
Its value is “inhibited in a concentration-dependent manner”.

For `Nc1ncnc2c1ncn2[C@H]1C[C@H](OP(=O)(O)O)[C@@H](CO)O1` [2'-deoxy-3'-AMD], which “order of potency of inhibition of adenylyl cyclase activity” value (type V adenylyl cyclase [1]) is on record?
Its value is 2'-deoxy-3'-AMD>3'-AMP>2'-deoxyadenosine>adenosine.

Which “adenylyl cyclase activity, NaF” value (cardiac adenylyl cyclase; Transfected CMT cell membranes, 10 mM sodium fluoride, ± standard error) does the source give for `[F-].[Na+]` [NaF, sodium fluoride] here?
Its value is 41±4.7.

And the “fold more stimulation than the control” value (cardiac adenylyl cyclase; [3])?
Its value is 2.7 fold.

What about the “adenylyl cyclase activity, NaF” value (untransfected CMT cells; 10 mM sodium fluoride) of the same compound?
Its value is 15±3.1.

For `Nc1nc2c(ncn2[C@@H]2O[C@H](COP(=O)(O)OP(=O)(O)OP(O)(O)=S)[C@@H](O)[C@H]2O)c(=O)[nH]1` [GTPγS], which “adenylyl cyclase activity, GTPγS” value (cardiac adenylyl cyclase; Transfected CMT cell membranes, 100 µM GTPγS, ± standard error) is on record?
The value was 84±12.5.

And the “fold more stimulation than the control” value (cardiac adenylyl cyclase; [3])?
The value was 2.8 fold.

What about the “adenylyl cyclase activity, GTPγS” value (untransfected CMT cells; 100 µM GTPγS) of the same compound?
The value was 30± 4.5.

How did the “order of potency of inhibition of adenylyl cyclase activity” value (type V adenylyl cyclase [1]) turn out when `Nc1ncnc2c1ncn2[C@@H]1O[C@H](CO)[C@@H](OP(=O)(O)O)[C@H]1O` [3'-AMP] was run?
Its value is 2'-deoxy-3'-AMD>3'-AMP>2'-deoxyadenosine>adenosine.
